Assays:
[1] = system: immortalized human Müller cells (MIO-M1); experiment: MTT toxicity assay on Müller cells; type: cell-based
Method: MIO-M1 cells were cultured in DMEM Glutamax medium (Thermo Fisher Scientific, Waltham, USA). The medium contained 10% foetal bovine serum (FBS) (Thermo Fisher Scientific, Waltham, USA), 100 IU/ml penicillin (Gibco®-Invitrogen life technologies, Walthan, USA), 100 μg/ml streptomycin (Gibco®-Invitrogen life technologies, Walthan, USA) and 2 mM L-Glutamin (Gibco®-Invitrogen life technologies, Walthan, USA). Before use, the medium was passed through a 0.2 μm PES membrane vacuum filter (VWR, Radnor, USA). The cells were plated in polystyrene cell culture flasks (surface=75 cm^2) (VWR, Radnor, USA) and placed in the incubator (37° C., 5% CO2) (Thermo Fisher Scientific, Waltham, USA) until confluence was reached (i.e. the cells forming a monolayer covering 80%-90% of the culture flask). The morphology was checked by microscopy (VWR, Radnor, USA). After reaching the confluence (more or less after 5 days) and checking the morphology, cells were split in new culture flasks. […]
To test the toxicity of free and nano-encapsulated ICG, we wanted to seed 7,000 Müller cells in each well of a 96-well plate (VWR, Radnor, USA). The cells were counted with a Bürker counting chamber (BRAND, Wertheim, Germany) to obtain the proper number of cells. […] The non-coloured cells were counted in 6 big squares (3 on each side of the chamber); each big square contained 0.1 μL mixture. […]

[2] = In vivo safety evaluation of treated eyes; parameters: species or system rabbit
Text: Before laser treatment, the rabbit's eyes were imaged by PAM and OCT (see section above). For laser treatment, anesthetized rabbits were kept on a custom-built stabilization platform. After acquiring the images and locating the opacities (collagen fibers) by OCT, areas in the eyes (4.5×4.5 mm^2) were illuminated with laser pulses (<7 ns; 1.9 J/cm^2) NT-242, Ekspla, Lithuania) of 800 nm (ICG) to destroy the collagen fibers; the step size of the scanning laser was 9 μm, the beam size equaled 20 μm. During the treatment, real-time OCT was active to monitor the position of the collagen fibers. The 4.5×4.5 mm^2 area was laser scanned several times (3-7 times) until the collagen fibers were completely destroyed. After the laser treatment, PAM and fundus images were performed to evaluate the potential damage of retinal vessels. Also, rabbit's vital signs were monitored and recorded until the animals fully recovered from anaesthesia.
Treated eyes were ophthalmologically evaluated immediately after the laser treatment and followed up for 1 month. Anterior segment structures such as the eyelids, iris, conjunctiva, cornea, anterior chamber and lens were comprehensively examined using slit lamp bio-microscopy (SL120, Carl Zeiss, Germany). In addition, posterior segment structures (i.e., the vitreous, optic nerve and retina) were assessed using a contact fundus lens (Volk Optical Inc, Mentor, Ohio, USA).

collagen fibers [3] = molecular target: T1, collagen fibers (Rattus norvegicus, UniProt P02454+P02466); experiment: In vivo laser photo-ablation of intravitreally injected collagen fibers; parameters: species or system rabbit
T1 construct: host or cells: exogenous fibres injected into the vitreous of New Zealand White rabbits
Text: (§1) A total of 24 New Zealand White rabbits (age 3-6 months; weight 2.45-3.15 kg; both genders) were used. The rabbits were randomly divided into 7 groups: a control group A treated with laser only (n=3), group B received an intravitreal (IVIT) injection of ICG (n=9), group C received an IVIT injection of ICG labeled collagen fibers (n=3), group D was IVIT injected with collagen fibers followed by an IVIT injection of ICG (n=3), group E was IVIT injected with HA-AuNPs labeled floaters (n=3), and group F was IVIT injected with floaters followed by an IVIT injection of HA-AuNPs (n=3). During the in vivo experiments, animal conditions such as mucous membrane color, heart rate, body heat, and respiratory rate were monitored every 15 minutes. The animals were anesthetized by intramuscular injection of ketamine (40 mg/kg) and xylazine (5 mg/kg). A drop of tropicamide (1%) and phenylephrine hydrochloride (2.5%) was applied into the rabbit eyes to dilate their pupils at 15 min before the imaging procedures. For topical anaesthesia, a drop of topical tetracaine (0.5%) was used. To avoid corneal dehydration during the experiment, a lubricant solution (Systane, Alcon Inc., TX, USA) was added into the eye every minute using a syringe with plastic needle. To maintain the anaesthesia, a dose of ketamine (13 mg/kg) was injected every 45 min. The animal's body heat was maintained using a circulation heat blanket.
First, to visualize the retina of the rabbit eyes, a plastic contact lens was placed on the cornea. When the target location in the vitreous was selected under the microscope, the rabbits under anaesthesia were subsequently intravitreally injected. The intravitreal injections were performed using a 27 gauge needle. […] The position of the fibers was monitored by OCT so that the intravitreal injection of ICG could be performed close the area where the fibers were located. […]
Before laser treatment, the rabbit's eyes were imaged by PAM and OCT (see section above). […] Also, rabbit's vital signs were monitored and recorded until the animals fully recovered from anaesthesia.

type I collagen fibers = molecular target: T2, type I collagen fibers (Rattus norvegicus, UniProt P02454+P02466); experiment: Photo-ablation of artificial floaters with nanosecond laser
T2 construct: type I collagen from the rat tail; purchased GIBCO; host or cells: rat tail (tissue-derived)
Method: Collagen fibers were prepared from type I collagen from the rat tail (GIBCO; concentration of 3 mg/ml) as described in Sauvage et al., 2019, ACS Nano, 13, 8401-8416. 5 ml of PBS was pipetted in a 15 ml falcon tube. 330 μL of the PBS solution was replaced by 330 μL collagen type I and the solution was vortexed. Sodium hydroxide (0.1 M) (VWR, Radnor, USA) was added to the acid solution of collagen to adjust pH to 7.4. The solution was vortexed again and placed for one hour in the incubator at 37° C. The final concentration of the collagen was 0.2 mg/ml.
First, dark-field microscopy imaging was performed to locate and align the nanosecond laser (Opolette HE 355 LD, OPOTEK Inc., CA, USA) on the artificial collagen fibers in the sample. Samples of either artificial or human opacities treated with TB, ICG and ICG nanoparticles were then illuminated with the laser (<7 ns). The wavelength of the laser light was 561 nm and the energy was set at ±800 μJ. A beam expander (#GBE05-A, Thorlabs) combined with iris diaphragm (#D37SZ, Thorlabs) were used to adjust the diameter of the laser beam to 150 μm (so that 800 μJ corresponded to a laser fluence of 4.5 J/cm^2). The laser pulse energy was monitored by an energy meter (J-25 MB-HE&LE, Energy Max-USB/RS sensors, Coherent) synchronized with the pulsed-laser. The set-up was made in such way to illuminate the sample shot by shot. Videos of the sample were made during illumination with NIS software. Same experiments were performed with human opacities Comparison Between Free ICG, PAH-ICG NPs and HSA-ICG NPs in Water and Bovine Vitreous.

[4] = In vivo clearance of intravitreally injected ICG from the vitreous (fundus imaging); parameters: species or system rabbit
Text: as §1
First, to visualize the retina of the rabbit eyes, a plastic contact lens was placed on the cornea. When the target location in the vitreous was selected under the microscope, the rabbits under anaesthesia were subsequently intravitreally injected. The intravitreal injections were performed using a 27 gauge needle. In one series of experiments 40 μL of ICG-fibers (which are collagen fibers treated with ICG) was injected; the concentration of collagen in the dispersions was 0.02 mg/mL. In another series of experiments, 40 μL of collagen fibers (0.02 mg/mL) were intravitreally injected. 5 days after the injection of the fibers, ICG (0.25-1.25 mg/ml) was injected in the vitreous (40 μl). The position of the fibers was monitored by OCT so that the intravitreal injection of ICG could be performed close the area where the fibers were located. Three days after the injection of ICG, laser treatment was performed.
The rabbits were monitored one minute after intravitreal injection of the collagen fibers and at day 4 post intravitreal injection of ICG. Rabbits intravitreally injected with ICG only were followed up for 14 days post injection. The rabbit eyes were assessed by color fundus photography, fluorescence imaging, optical coherence tomography (OCT) and photoacoustic microscopy (PAM), as discussed below. The rabbit's head and body were positioned in two different platforms to minimize breathing and other motion artifacts. The same scanning areas for PAM- and OCT-imaging were monitored by the fundus camera which was integrated in the OCT system. To detect the photoacoustic signal, the ultrasound transducer was placed in contact with the conjunctiva, allowing it to move freely in 3D while not applying any physical pressure on the rabbit eyes. […]
Color fundus photography was performed using a 50-degree color fundus photography system (Topcon 50EX, Topcon Corporation, Tokyo, Japan). […] Fluorescence imaging was done with the Topcon 50EX system using appropriate excitation and emission filters.

human vitreous opacities = experiment: Photo-ablation of human vitreous opacities obtained after vitrectomy; conditions: 0.5 mg/ml
collagen fibers [5] = molecular target: T1, collagen fibers; experiment: In vivo binding of intravitreally injected ICG to collagen fibers (PAM/OCT/fundus imaging); parameters: species or system rabbit
Text: A total of 24 New Zealand White rabbits (age 3-6 months; weight 2.45-3.15 kg; both genders) were used. The rabbits were randomly divided into 7 groups: a control group A treated with laser only (n=3), group B received an intravitreal (IVIT) injection of ICG (n=9), group C received an IVIT injection of ICG labeled collagen fibers (n=3), group D was IVIT injected with collagen fibers followed by an IVIT injection of ICG (n=3), group E was IVIT injected with HA-AuNPs labeled floaters (n=3), and group F was IVIT injected with floaters followed by an IVIT injection of HA-AuNPs (n=3). During the in vivo experiments, animal conditions such as mucous membrane color, heart rate, body heat, and respiratory rate were monitored every 15 minutes. […]
First, to visualize the retina of the rabbit eyes, a plastic contact lens was placed on the cornea. […] The position of the fibers was monitored by OCT so that the intravitreal injection of ICG could be performed close the area where the fibers were located. […]
The rabbits were monitored one minute after intravitreal injection of the collagen fibers and at day 4 post intravitreal injection of ICG. […] The rabbit eyes were assessed by color fundus photography, fluorescence imaging, optical coherence tomography (OCT) and photoacoustic microscopy (PAM), as discussed below. […]

[6] = eyes treated with laser with ICG

T1 sequence (P02454 152-1207 limits assumed): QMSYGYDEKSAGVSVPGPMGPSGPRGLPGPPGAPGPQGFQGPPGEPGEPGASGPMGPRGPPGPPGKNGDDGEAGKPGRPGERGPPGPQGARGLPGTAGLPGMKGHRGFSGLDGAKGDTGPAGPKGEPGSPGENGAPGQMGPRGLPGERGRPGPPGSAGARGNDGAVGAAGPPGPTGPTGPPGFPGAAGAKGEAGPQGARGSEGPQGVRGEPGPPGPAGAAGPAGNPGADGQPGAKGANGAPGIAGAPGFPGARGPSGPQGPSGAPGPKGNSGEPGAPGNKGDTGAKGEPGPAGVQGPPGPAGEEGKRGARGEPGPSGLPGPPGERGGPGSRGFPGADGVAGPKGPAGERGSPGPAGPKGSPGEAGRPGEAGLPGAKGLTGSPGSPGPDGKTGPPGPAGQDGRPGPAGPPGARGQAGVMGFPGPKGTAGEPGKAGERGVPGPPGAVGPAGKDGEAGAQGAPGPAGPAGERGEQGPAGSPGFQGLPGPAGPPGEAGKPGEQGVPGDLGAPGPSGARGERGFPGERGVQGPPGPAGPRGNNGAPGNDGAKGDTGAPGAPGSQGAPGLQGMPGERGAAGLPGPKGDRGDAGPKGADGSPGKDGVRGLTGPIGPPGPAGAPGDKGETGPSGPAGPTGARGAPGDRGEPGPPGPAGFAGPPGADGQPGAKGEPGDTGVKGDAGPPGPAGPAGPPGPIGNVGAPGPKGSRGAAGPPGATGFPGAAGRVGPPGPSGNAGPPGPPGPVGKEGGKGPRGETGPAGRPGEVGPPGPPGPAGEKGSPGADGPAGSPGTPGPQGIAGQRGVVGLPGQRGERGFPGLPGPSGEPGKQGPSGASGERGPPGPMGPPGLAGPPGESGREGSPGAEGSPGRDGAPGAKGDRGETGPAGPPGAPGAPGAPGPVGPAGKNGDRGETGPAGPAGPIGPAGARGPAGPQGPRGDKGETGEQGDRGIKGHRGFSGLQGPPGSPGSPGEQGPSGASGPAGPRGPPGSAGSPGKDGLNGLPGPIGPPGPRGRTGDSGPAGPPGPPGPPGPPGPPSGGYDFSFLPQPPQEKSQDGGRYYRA
T1 sequence (P02466 86-1125 limits assumed): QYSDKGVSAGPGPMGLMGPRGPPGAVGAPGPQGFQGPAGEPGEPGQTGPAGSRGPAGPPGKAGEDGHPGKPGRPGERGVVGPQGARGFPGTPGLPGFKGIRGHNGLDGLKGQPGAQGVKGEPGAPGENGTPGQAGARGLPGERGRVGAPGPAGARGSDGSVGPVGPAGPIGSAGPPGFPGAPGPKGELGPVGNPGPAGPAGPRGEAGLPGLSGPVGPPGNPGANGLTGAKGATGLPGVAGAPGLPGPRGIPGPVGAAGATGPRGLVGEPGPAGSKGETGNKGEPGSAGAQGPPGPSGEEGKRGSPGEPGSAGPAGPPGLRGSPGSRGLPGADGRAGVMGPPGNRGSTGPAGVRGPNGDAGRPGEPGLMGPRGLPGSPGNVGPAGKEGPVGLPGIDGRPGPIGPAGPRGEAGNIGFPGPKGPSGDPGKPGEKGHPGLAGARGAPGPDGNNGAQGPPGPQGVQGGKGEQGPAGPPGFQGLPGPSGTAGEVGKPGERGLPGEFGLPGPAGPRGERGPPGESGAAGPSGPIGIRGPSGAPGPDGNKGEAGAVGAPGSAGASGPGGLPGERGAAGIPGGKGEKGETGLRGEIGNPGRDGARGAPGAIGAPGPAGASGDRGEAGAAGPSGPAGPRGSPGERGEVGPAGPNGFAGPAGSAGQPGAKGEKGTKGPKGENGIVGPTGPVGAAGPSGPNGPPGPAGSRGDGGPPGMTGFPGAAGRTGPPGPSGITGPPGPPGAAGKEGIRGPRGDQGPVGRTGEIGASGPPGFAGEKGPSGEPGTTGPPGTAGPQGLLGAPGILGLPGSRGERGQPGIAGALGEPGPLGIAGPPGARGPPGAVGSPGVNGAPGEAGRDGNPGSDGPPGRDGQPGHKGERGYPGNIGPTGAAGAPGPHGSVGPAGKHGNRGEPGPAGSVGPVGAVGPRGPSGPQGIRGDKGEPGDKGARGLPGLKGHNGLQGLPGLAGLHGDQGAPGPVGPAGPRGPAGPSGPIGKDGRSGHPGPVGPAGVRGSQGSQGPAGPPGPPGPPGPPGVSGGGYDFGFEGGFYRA
T2 sequence (P02454 152-1207 limits assumed): as the sequence (P02454 152-1207 limits assumed) above
T2 sequence (P02466 86-1125 limits assumed): as the sequence (P02466 86-1125 limits assumed) above

CC1(C)C(/C=C/C=C/C=C/C=C2\N(CCCCS(=O)(=O)O)c3ccc4ccccc4c3C2(C)C)=[N+](CCCCS(=O)(=O)[O-])c2ccc3ccccc3c21 [ICG, Indocyanine Green]
toxicity on immortalized human retinal cells (MIO-M1) ([1]; 0.5 mg/ml): no clear toxicity | toxicity / metabolic activity (MTT) ([1]; 24 hours, 0.1-1 mg/ml): rather acceptable toxicity up to a concentration of 0.5 mg/ml | anterior segment 30 days post treatment ([2]; 30 days post treatment): normal corneas, eyelids, anterior chamber, conjunctiva and transparent lenses | anterior segment, visual inspection [2, 6]: normal corneas, eyelids, anterior chamber, conjunctiva, and transparent lens | posterior segment, color fundus imaging [2, 6]: no significant changes or injuries in the posterior segment structure | retinal layers, B-scan OCT ([2]; post laser treatment): did not indicate structural disorganization in the retinal layers | destruction of collagen fibers in vivo (collagen fibers [3]; IVIT 0.625 mg/mL, 800 nm, 1.9 J/cm^2): complete destruction of the collagen fibers | laser pulses (scans) sufficient to completely destroy injected collagen fibers (collagen fibers [3]; IVIT 1.25 mg/mL, 800 nm, 1.9 J/cm^2, 3 days after ICG): 5 laser pulses | pulses sufficient to destroy the IVIT injected fibers (collagen fibers [3]; all rabbits tested (n=3)): 3.3+/−1.5 pulses | binding and destruction of type I collagen fibers (type I collagen fibers; 0.5 mg/ml): can bind and efficiently destroy type I collagen fibers | location of VNBs during laser pulse on fiber (type I collagen fibers; nanosecond laser 4.5 J/cm^2): VNBs could be observed at the level of the fiber | visibility of ICG 7 days after injection ([4]; 0.25 mg/ml IVIT): no longer visible at the level of the collagen fibers | visibility of ICG 7 days after injection ([4]; 0.625 mg/ml IVIT): remained only visible at the level of the collagen fibers | visibility of ICG 7 days after injection ([4]; 1.25 mg/ml IVIT): remained only visible at the level of the collagen fibers | visibility of 'free' ICG (not bound to collagen) in vitreous cavity ([4]; 3 days post injection, all concentrations): no longer visible in the vitreous cavity | visibility of injected ICG in vitreous ([4]; after one day, 0.25, 0.625 and 1.25 mg/ml IVIT): most of the injected ICG was no longer visible | destruction of human vitreous opacity (human vitreous opacities; 561 nm, 4.5 J/cm^2): the vitreous opacity could be destroyed | destruction of human vitreous opacity (human vitreous opacities; 800 nm, 1.1 J/cm^2): the vitreous opacity could be destroyed | reaching and binding of collagen fibers in vivo (collagen fibers [5]; IVIT 1.25 mg/mL, 5 days after fiber injection): could reach and bind the collagen fibers | lowest concentration at which binding to collagen fibers was still observed in vivo (collagen fibers [5]; intravitreal injection): 0.625 mg/mL

Cc1cc(-c2ccc(/N=N/c3c(S(=O)(=O)O)cc4cc(S(=O)(=O)O)cc(N)c4c3O)c(C)c2)ccc1/N=N/c1c(S(=O)(=O)O)cc2cc(S(=O)(=O)O)cc(N)c2c1O [free TB, Trypan Blue]
binding and destruction of type I collagen fibers (type I collagen fibers; 0.1 mg/ml as printed): can bind and efficiently destroy type I collagen fibers
